From ChEMBL document CHEMBL3244027, “Syntheses, analgetic activity, and physical dependence capacity of 5-phenyl-6,7-benzomorphan derivatives” (J Med Chem, 1979)
Activity calls are given as the source filed them. No cut-off for these calls is given here.

How the values were obtained:
Mus musculus [1] = species on record: Mus musculus; experiment: Analgetic activity in naloxone challenged mouse assessed as frequency pretreated for 2 day by mouse jumping test; type: functional, organism-based
Mus musculus [2] = experiment: Analgetic activity against CF-1 mouse assessed as increase in reaction time at 80 mg/kg, sc by heat stimulus induced tail flick response assay; type: functional, organism-based; design: dose 80 mg/kg
Mus musculus [3] = experiment: Analgetic activity against CF-1 mouse assessed as increase in reaction time at 40 mg/kg, po by heat stimulus induced tail flick response assay; type: functional, organism-based; design: dose 40 mg/kg
Mus musculus [4] = experiment: Analgetic activity against CF-1 mouse assessed as increase in reaction time at 160 mg/kg, sc by heat stimulus induced tail flick response assay; type: functional, organism-based; design: dose 160 mg/kg
Mus musculus [5] = experiment: Analgetic activity against CF-1 mouse assessed as increase in reaction time at 40 mg/kg, sc by heat stimulus induced tail flick response assay; type: functional, organism-based; design: dose 40 mg/kg
Mus musculus [6] = experiment: Analgetic activity against CF-1 mouse assessed as increase in reaction time at 20 mg/kg, sc by heat stimulus induced tail flick response assay; type: functional, organism-based; design: dose 20 mg/kg
Mus musculus [7] = experiment: Analgetic activity in sc dosed CF1S mouse assessed as writhing by phenylquinone writhing test; type: functional; settings: Mus musculus, CF1S, sc; read-out: ED50
Mus musculus [8] = experiment: Analgetic activity in po dosed CF1S mouse assessed as writhing by phenylquinone writhing test; type: functional; settings: Mus musculus, CF1S, po; read-out: ED50
Mus musculus [9] = experiment: Analgetic activity against CF-1 mouse assessed as increase in reaction time at 320 mg/kg, po by heat stimulus induced tail flick response assay; type: functional, organism-based; design: dose 320 mg/kg
Mus musculus [10] = experiment: Analgetic activity against CF-1 mouse assessed as increase in reaction time at 80 mg/kg, po by heat stimulus induced tail flick response assay; type: functional, organism-based; design: dose 80 mg/kg
Mus musculus [11] = experiment: Analgetic activity against CF-1 mouse assessed as increase in reaction time at 5 mg/kg, sc by heat stimulus induced tail flick response assay; type: functional, organism-based; design: dose 5 mg/kg
Mus musculus [12] = experiment: Analgetic activity against CF-1 mouse assessed as increase in reaction time at 10 mg/kg, po by heat stimulus induced tail flick response assay; type: functional, organism-based; design: dose 10 mg/kg
Mus musculus [13] = experiment: Analgetic activity against CF-1 mouse assessed as increase in reaction time at 2.5 mg/kg, sc by heat stimulus induced tail flick response assay; type: functional, organism-based; design: dose 2.5 mg/kg
Mus musculus [14] = experiment: Analgetic activity against CF-1 mouse assessed as increase in reaction time at 160 mg/kg, po by heat stimulus induced tail flick response assay; type: functional, organism-based; design: dose 160 mg/kg
Mus musculus [15] = experiment: Analgetic activity against CF-1 mouse assessed as increase in reaction time at 20 mg/kg, po by heat stimulus induced tail flick response assay; type: functional, organism-based; design: dose 20 mg/kg
Mus musculus [16] = species on record: Mus musculus; experiment: Analgetic activity in nalorphine challenged mouse assessed as frequency pretreated for 2 day by mouse jumping test; type: functional, organism-based
Mus musculus [17] = experiment: Analgetic activity against CF-1 mouse assessed as increase in reaction time at 320 mg/kg, sc by heat stimulus induced tail flick response assay; type: functional, organism-based; design: dose 320 mg/kg

SMILES: CCC1=C(c2ccccc2)CCN(C)C1Cc1ccc(O)cc1 (centres undefined)
- Activity (Mus musculus [1]): inactive
- Activity (Mus musculus [2]): Active

SMILES: Cc1ccc(S(=O)(=O)Oc2ccc3c(c2)C2(c4ccccc4)CCN(C)C(C3)C2)cc1 (racemic)
- Activity (Mus musculus [2]): inactive

SMILES: CN1CCC2(c3ccccc3)CC1Cc1ccc(O)cc12 (stereo in doubt; 42)
- Activity (Mus musculus [2]): inactive

SMILES: COc1ccc(CC2C=C(c3ccc(Cl)cc3)CCN2C)cc1 (centres undefined)
- Activity (Mus musculus [1]): inactive
- Activity (Mus musculus [3]): Active

SMILES: c1ccc(C23CCNC(Cc4ccccc42)C3)cc1 (centres undefined)
- Activity (Mus musculus [4]): Active

SMILES: Oc1ccc2c(c1)C1(c3ccccc3)CCN(CCc3ccccc3)C(C2)C1 (racemic)
- Activity (Mus musculus [5]): Active

SMILES: CC1C2Cc3ccc(O)cc3C1(c1ccccc1)CCN2C (centres undefined)
- Activity (Mus musculus [6]): Active
- Activity (Mus musculus [3]): Active

SMILES: C=C(Br)CN1CCC2(c3ccccc3)c3cc(O)ccc3CC1C2C.Cl (centres undefined)
- Activity (Mus musculus [1]): inactive
- Activity (Mus musculus [5]): inactive
- ED50 (Mus musculus [7]): > 100 mg/kg

SMILES: Br.CN1CCC2(c3ccccc3)CC1Cc1ccc(F)cc12 (racemic)
- ED50 (Mus musculus [8]): 33 mg/kg
- Activity (Mus musculus [2]): inactive

SMILES: CC1C2Cc3ccc(O)cc3C1(c1ccccc1)CCN2CCO (racemic)
- Activity (Mus musculus [4]): inactive
- Activity (Mus musculus [9]): inactive

SMILES: C/C(Cl)=C\CN1CCC2(c3ccccc3)c3cc(O)ccc3CC1C2C (centres undefined)
- ED50 (Mus musculus [7]): > 100 mg/kg
- Activity (Mus musculus [2]): inactive

SMILES: COc1cc(CC2C=C(c3ccccc3)CCN2C)cc(OC)c1OC (centres undefined)
- Activity (Mus musculus [10]): Active

SMILES: CCCCCN1CCC2(c3ccccc3)c3cc(OC(C)=O)ccc3CC1C2C (centres undefined)
- Activity (Mus musculus [11]): Active
- Activity (Mus musculus [3]): Active

SMILES: CC1C2Cc3ccc(O)cc3C1(c1ccccc1)CCN2C (racemic)
- Activity (Mus musculus [11]): Active
- Activity (Mus musculus [12]): Active

SMILES: CCC(=O)Oc1ccc2c(c1)C1(c3ccccc3)CCN(C)C(C2)C1C (centres undefined)
- Activity (Mus musculus [13]): Active

SMILES: c1ccc(CCN2CCC3(c4ccccc4)CC2Cc2ccccc23)cc1 (racemic)
- Activity (Mus musculus [14]): Active

SMILES: CN(C)C(=S)Oc1ccc2c(c1)C1(c3ccccc3)CCN(C)C(C2)C1 (racemic)
- Activity (Mus musculus [5]): inactive
- Activity (Mus musculus [9]): inactive

SMILES: CCCCCN1CCC2(c3ccccc3)c3cc(O)ccc3CC1C2C (racemic)
- Activity (Mus musculus [11]): Active

SMILES: Br.CC1=C(c2ccccc2)CCN(C)C1Cc1ccccc1 (centres undefined)
- Activity (Mus musculus [4]): Active
- ED50 (Mus musculus [7]): 45 mg/kg

SMILES: CC1=C(c2ccccc2)CCN(C)C1Cc1ccc(O)cc1 (centres undefined)
- Activity (Mus musculus [1]): inactive
- Activity (Mus musculus [4]): Active
- ED50 (Mus musculus [7]): 5 mg/kg

SMILES: C[C@@H]1C2Cc3ccc(O)cc3C1(c1ccccc1)CCN2C (mixture of isomers)
- Activity (Mus musculus [4]): Active

SMILES: CCCC(=O)Oc1ccc2c(c1)C1(c3ccccc3)CCN(C)C(C2)C1C (centres undefined)
- Activity (Mus musculus [12]): Active
- Activity (Mus musculus [15]): Active

SMILES: Cl.Oc1ccc2c(c1)C1(c3ccc(Cl)cc3)CCN(CCc3ccccc3)C(C2)C1 (racemic)
- Activity (Mus musculus [10]): inactive
- ED50 (Mus musculus [7]): > 100 mg/kg

SMILES: CC1C2Cc3ccccc3C1(c1ccccc1)CCN2C (racemic)
- Activity (Mus musculus [10]): Active
- Activity (Mus musculus [5]): Active

SMILES: C/C(Cl)=C/CN1CCC2(c3ccccc3)c3cc(O)ccc3CC1C2C (racemic)
- Activity (Mus musculus [4]): inactive
- ED50 (Mus musculus [7]): > 100 mg/kg

SMILES: C#CCN1CCC2(c3ccccc3)c3cc(O)ccc3CC1C2C (centres undefined)
- Activity (Mus musculus [1]): inactive

SMILES: c1ccc(CCN2CCC3(c4ccccc4)CC2Cc2ccccc23)cc1 (centres undefined)
- Activity (Mus musculus [4]): inactive

SMILES: CC(C)CCN1CCC2(c3ccccc3)c3cc(O)ccc3CC1[C@H]2C (some centres undefined)
- Activity (Mus musculus [14]): Active

SMILES: CN1CCC2(c3ccccc3)CC1Cc1cc(O)c(O)c(O)c12 (racemic)
- Activity (Mus musculus [14]): inactive

SMILES: Oc1ccc2c(c1)C1(c3ccccc3)CCN(C/C=C/Cl)C(C2)C1 (racemic)
- Activity (Mus musculus [1]): inactive
- ED50 (Mus musculus [7]): > 100 mg/kg

SMILES: Oc1ccc2c(c1)C1(c3ccccc3)CCN(CC3CCC3)C(C2)C1 (stereo in doubt; 145)
- Activity (Mus musculus [1]): inactive

SMILES: CC1C2Cc3ccc(O)cc3C1(c1ccccc1)CCN2CC(c1ccccc1)c1ccccc1 (centres undefined)
- Activity (Mus musculus [14]): inactive

SMILES: CN1CCC2(c3ccccc3)CC1Cc1ccccc12 (racemic)
- Activity (Mus musculus [6]): Active
- Activity (Mus musculus [3]): Active

SMILES: CC1C2Cc3ccc(O)cc3C1(c1ccccc1)CCN2CCc1ccccc1 (racemic)
- Activity (Mus musculus [6]): Active
- Activity (Mus musculus [3]): Active

SMILES: CN1CCC(c2ccccc2)=CC1Cc1ccc(O)cc1 (centres undefined)
- Activity (Mus musculus [6]): Active
- Activity (Mus musculus [1]): inactive
- ED50 (Mus musculus [8]): 27 mg/kg
- ED50 (Mus musculus [7]): 1.5 mg/kg

SMILES: CN1CCC2(c3ccc(Cl)cc3)CC1Cc1ccc(O)cc12 (racemic)
- Activity (Mus musculus [5]): Active

SMILES: Oc1ccc2c(c1)C1(c3ccccc3)CCN(CCc3ccccc3)C(C2)C1 (centres undefined)
- Activity (Mus musculus [10]): Active
- Activity (Mus musculus [1]): Active

SMILES: CC1C2Cc3ccc(O)cc3C1(c1ccccc1)CCN2CC1CCC1 (stereo in doubt; 219)
- Activity (Mus musculus [1]): inactive

SMILES: CN1CCC2(c3ccccc3)CC1Cc1ccccc12 (stereo in doubt; 36)
- Activity (Mus musculus [6]): Active
- Activity (Mus musculus [16]): inactive

SMILES: CC1C2Cc3ccc(O)cc3C1(c1ccccc1)CCN2CCO (centres undefined)
- Activity (Mus musculus [2]): inactive

SMILES: CN1CCC2(c3ccccc3)CC1Cc1ccc(O)cc12 (racemic)
- Activity (Mus musculus [6]): Active

SMILES: CCCCCN1CCC2(c3ccccc3)c3cc(O)ccc3CC1C2C (centres undefined)
- Activity (Mus musculus [4]): Active
- Activity (Mus musculus [13]): Active

SMILES: COc1ccc(CC2C=C(c3ccccc3)CCN2C)cc1 (centres undefined)
- Activity (Mus musculus [1]): inactive
- Activity (Mus musculus [2]): Active

SMILES: CC1C2Cc3ccc(O)cc3C1(c1ccccc1)CCN2CCC(C#N)(c1ccccc1)c1ccccc1 (stereo in doubt; 189)
- Activity (Mus musculus [16]): inactive
- Activity (Mus musculus [9]): inactive

SMILES: CC1C2Cc3ccc(OC(=O)CCl)cc3C1(c1ccccc1)CCN2C (centres undefined)
- Activity (Mus musculus [13]): Active

SMILES: COc1ccc(CC2C=C(c3ccccc3)CCN2C)cc1OC (centres undefined)
- Activity (Mus musculus [5]): Active

SMILES: c1ccc(C23CCNC(Cc4ccccc42)C3)cc1 (racemic)
- Activity (Mus musculus [2]): Active

SMILES: CCOC(=O)CNC(=O)Oc1ccc2c(c1)C1(c3ccccc3)CCN(C)C(C2)[C@H]1C (some centres undefined)
- Activity (Mus musculus [10]): Active
- Activity (Mus musculus [5]): Active

SMILES: CCC1C2Cc3ccc(O)cc3C1(c1ccccc1)CCN2C (racemic)
- Activity (Mus musculus [6]): Active

SMILES: COCOc1ccc2c(c1)C1(c3ccccc3)CCN(C)C(C2)C1C (centres undefined)
- Activity (Mus musculus [11]): Active
- Activity (Mus musculus [15]): Active

SMILES: Oc1ccc2c(c1)C1(c3ccccc3)CCN(CCCc3ccccc3)C(C2)C1 (racemic)
- ED50 (Mus musculus [8]): > 100 mg/kg
- Activity (Mus musculus [14]): Active

SMILES: CN1CCC2(c3ccc(Cl)cc3)CC1Cc1ccccc12 (racemic)
- Activity (Mus musculus [14]): Active
- Activity (Mus musculus [2]): Active

SMILES: Br.CN1CCC(c2ccccc2)=CC1Cc1ccccc1 (centres undefined)
- Activity (Mus musculus [1]): inactive
- Activity (Mus musculus [5]): Active
- ED50 (Mus musculus [8]): 37 mg/kg
- ED50 (Mus musculus [7]): 6.6 mg/kg

SMILES: CC1C2Cc3ccc(OC(=O)c4ccccc4F)cc3C1(c1ccccc1)CCN2C (centres undefined)
- Activity (Mus musculus [16]): Active
- ED50 (Mus musculus [7]): 0.5 mg/kg

SMILES: CN1CCC(c2ccccc2)=CC1Cc1ccc(F)cc1 (centres undefined)
- Activity (Mus musculus [2]): Active

SMILES: Oc1ccc2c(c1)C1(c3ccccc3)CCNC(C2)C1 (racemic)
- Activity (Mus musculus [17]): inactive
- Activity (Mus musculus [14]): inactive

SMILES: CC(=O)Oc1ccc2c(c1)C1(c3ccccc3)CCN(C)C(C2)C1 (racemic)
- Activity (Mus musculus [1]): inactive
- ED50 (Mus musculus [7]): 9.4 mg/kg
- Activity (Mus musculus [2]): inactive

SMILES: CC(C)=CCN1CCC2(c3ccccc3)c3cc(O)ccc3CC1C2C (stereo in doubt; 207)
- Activity (Mus musculus [1]): inactive

SMILES: CC1C2Cc3ccc(OC(=O)c4ccccc4Cl)cc3C1(c1ccccc1)CCN2C (centres undefined)
- ED50 (Mus musculus [8]): 49 mg/kg
- Activity (Mus musculus [16]): Active

SMILES: CC1C2Cc3ccc(O)cc3C1(c1ccccc1)CCN2CCC(=O)c1ccccc1 (centres undefined)
- Activity (Mus musculus [14]): Active

SMILES: COc1ccc2c(c1)C1(c3ccccc3)CCN(C)C(C2)C1C (centres undefined)
- Activity (Mus musculus [5]): Active
- Activity (Mus musculus [15]): Active
- Activity (Mus musculus [2]): Active
